Patent US20240108623A1, “METHODS OF TREATING CANCER WITH POZIOTINIB” (BOARD OF REGENTS, THE UNIVERSITY OF TEXAS SYSTEM, priority 2021, published 2024)

Tests used:
Test in all cases: Ba/F3 cell drug screening, Cell Titer Glo
Assay type in all cases: cell-based
[1] = target: T1, EGFR Ex19del T854I (Homo sapiens, UniProt P00533, DEL746-750/T854I); conditions: Ba/F3 cells expressing EGFR Ex19del T854I; 72 hours
T1 construct: expressed in transfected cells; host or cells: Ba/F3 (murine pro-B cells), retroviral transduction with pBabe-Puro based vectors
Experimental: (§1) Ba/F3 cell generation, drug screening, and IC50 approximations. Ba/F3 cells were obtained as a gift from Dr. Gordon Mills (MD Anderson Cancer Center), and maintained in RPMI (Sigma) containing 10% FBS, 1% penicillin/streptomycin, and 10 ng/ml recombinant mIL-3 (R&D Biosystems). To establish stable Ba/F3 cell lines, Ba/F3 cells were transduced with retroviruses containing mutant EGFR plasmids for 12-24 hours. Retroviruses were generated using Lipofectamine 2000 (Invitrogen) transfections of Phoenix 293T-ampho cells (Orbigen) with pBabe-Puro based vectors listed below in Table 6. Vectors were generated by GeneScript or Bioinnovatise using parental vectors from Addgene listed below in Table 6.
(§2) After 48-72 hours of transduction, 2 μg/ml puromycin (Invitrogen) was added to Ba/F3 cell lines in complete RPMI. To select for EGFR positive cell lines, cells were stained with PE-EGFR (Biolegend) and sorted by FACS. After sorting, EGFR positive cells were maintained in RPMI containing 10% FBS, 1% penicillin/streptomycin, and 1 ng/ml EGF to support cell viability. Drug screening was performed as previously described^41,42. Shortly, cells were plated in 384-well plates (Greiner Bio-One) at 2000-3000 cells per well in technical triplicate. Seven different concentrations of TKIs or DMSO vehicle were added to reach a final volume of 40 μL per well. After 72 hours, 11p L of Cell Titer Glo (Promega) was added to each well. Plates were incubated for a minimum of 10 minutes, and bioluminescence was determined using a FLUOstar OPTIMA plate reader (BMG LABTECH). Raw bioluminescence values were normalized to DMSO control treated cells, and values were plotted in GraphPad Prism. Non-linear regressions were used to fit the normalized data with a variable slope, and IC50 values were determined by GraphPad prism by interpolation of concentrations at 50% inhibition. Drug screens were performed in technical triplicate on each plate and either duplicate or triplicate biological replicates. Mutant to WT ratios (Mut/WT) for each drug were calculated by dividing the IC50 values of mutant cell lines by the average IC50 value of Ba/F3 cells expressing WT EGFR supplemented with 10 ng/ml EGF for each drug. Statistical differences between groups were determined by ANOVA as described in the figure legends.

[2] = target: T2, EGFR G719A (Homo sapiens, UniProt P00533, G719A); conditions: Ba/F3 cells expressing EGFR G719A; 72 hours
T2 construct: expressed in transfected cells; host or cells: Ba/F3 (retroviral transduction, pBabe-Puro based vectors)
Experimental: as §1, §2

[3] = target: T3, EGFR Ex19del G724S (Homo sapiens, UniProt P00533, DEL746-750/G724S); conditions: Ba/F3 cells expressing EGFR Ex19del G724S; 72 hours
T3 construct: expressed in transfected cells; host or cells: Ba/F3 (retroviral transduction, pBabe-Puro based vectors)
Experimental: as §1, §2

[4] = target: T4, EGFR T790M (Homo sapiens, UniProt P00533, T790M); conditions: Ba/F3 cells expressing EGFR T790M; 72 hours
T4 construct: expressed in transfected cells; host or cells: Ba/F3 (retroviral transduction, pBabe-Puro based vectors)
Experimental: as §1, §2

[5] = target: T5, EGFR L833V (Homo sapiens, UniProt P00533, L833V); conditions: Ba/F3 cells expressing EGFR L833V; 72 hours
T5 construct: expressed in transfected cells; host or cells: Ba/F3 (retroviral, pBabe-Puro based vector)
Experimental: as §1, §2

[6] = target: T6, EGFR Ex19del/T790M/G724S (Homo sapiens, UniProt P00533, DEL746-750/G724S/T790M); conditions: Ba/F3 cells expressing EGFR Ex19del/T790M/G724S; 72 hours
T6 construct: expressed in transfected cells; host or cells: Ba/F3 (retroviral transduction, pBabe-Puro based vectors)
Experimental: as §1, §2

[7] = target: T7, EGFR V769L (Homo sapiens, UniProt P00533, V769L); conditions: Ba/F3 cells expressing EGFR V769L; 72 hours
T7 construct: expressed in transfected cells; host or cells: Ba/F3 (retroviral transduction, pBabe-Puro based vectors)
Experimental: as §1, §2

[8] = target: T8, EGFR V774M (Homo sapiens, UniProt P00533, V774M); conditions: Ba/F3 cells expressing EGFR V774M; 72 hours
T8 construct: host or cells: Ba/F3 (retroviral transduction, pBabe-Puro based vectors)
Experimental: as §1, §2

[9] = target: T9, EGFR L718Q T790M (Homo sapiens, UniProt P00533, L718Q/T790M); conditions: Ba/F3 cells expressing EGFR L718Q T790M; 72 hours
T9 construct: expressed in transfected cells; host or cells: Ba/F3 (retroviral transduction, pBabe-Puro based vectors)
Experimental: as §1, §2

[10] = target: T10, EGFR L858R T790M L718V (Homo sapiens, UniProt P00533, L718V/L858R/T790M); conditions: Ba/F3 cells expressing EGFR L858R T790M L718V; 72 hours
T10 construct: expressed in transfected cells; host or cells: Ba/F3 (retroviral transduction, pBabe-Puro based vectors)
Experimental: as §1, §2

[11] = target: T11, EGFR S768I V774M (Homo sapiens, UniProt P00533, S768I/V774M); conditions: Ba/F3 cells expressing EGFR S768I V774M; 72 hours
T11 construct: host or cells: Ba/F3 (retroviral transduction, pBabe-Puro based vectors)
Experimental: as §1, §2

[12] = target: T12, EGFR S768dupSVD (Homo sapiens, UniProt P00533, DUP768-770); conditions: Ba/F3 cells expressing EGFR S768dupSVD; 72 hours
T12 construct: expressed in transfected cells; host or cells: Ba/F3 (retroviral, pBabe-Puro based vector)
Experimental: as §1, §2

[13] = target: T13, EGFR Ex19del T790M (Homo sapiens, UniProt P00533, DEL746-750/T790M); conditions: Ba/F3 cells expressing EGFR Ex19del T790M; 72 hours
T13 construct: expressed in transfected cells; host or cells: Ba/F3 (retroviral transduction, pBabe-Puro based vectors)
Experimental: as §1, §2

[14] = target: T14, EGFR L858R/T790M/C797S (Homo sapiens, UniProt P00533, C797S/L858R/T790M); conditions: Ba/F3 cells expressing EGFR L858R/T790M/C797S; 72 hours
T14 construct: expressed in transfected cells; host or cells: Ba/F3 (retroviral transduction, pBabe-Puro based vectors)
Experimental: as §1, §2

[15] = target: T15, EGFR G719A T790M (Homo sapiens, UniProt P00533, G719A/T790M); conditions: Ba/F3 cells expressing EGFR G719A T790M; 72 hours
T15 construct: expressed in transfected cells; host or cells: Ba/F3 (retroviral transduction, pBabe-Puro based vectors)
Experimental: as §1, §2

[16] = target: T16, EGFR Ex19del (Homo sapiens, UniProt P00533, DEL746-750); conditions: Ba/F3 cells expressing EGFR Ex19del; 72 hours
T16 construct: expressed in transfected cells; host or cells: Ba/F3 (retroviral, pBabe-Puro based vector)
Experimental: as §1, §2

Structure (SMILES): C=CC(=O)N1CCC(Oc2cc3c(Nc4ccc(Cl)c(Cl)c4F)ncnc3cc2OC)CC1 [Poziotinib]
- Response of Cells Comprising PACC EGFR Mutations to Second-Generation TKIs [1]: 0.008664
- Response of Cells Comprising PACC EGFR Mutations to Second-Generation TKIs [2]: 0.02575
- Response of Cells Comprising PACC EGFR Mutations to Second-Generation TKIs [3]: 0.4952
- Response of Cells Comprising T790M-like-S EGFR Mutations to Second-Generation TKIs [4]: 4.671
- Response of Cells Comprising Classical-Like EGFR Mutations to Second-Generation TKIs [5]: 0.004716
- Response of Cells Comprising T790M-like-S EGFR Mutations to Second-Generation TKIs [6]: 19.53
- Response of Cells Comprising PACC EGFR Mutations to Second-Generation TKIs [7]: 0.05673
- Response of Cells Comprising PACC EGFR Mutations to Second-Generation TKIs [8]: 0.01859
- Response of Cells Comprising T790M-like-R EGFR Mutations to Second-Generation TKIs [9]: 6.487
- Response of Cells Comprising T790M-like-R EGFR Mutations to Second-Generation TKIs [10]: 33.63
- Response of Cells Comprising PACC EGFR Mutations to Second-Generation TKIs [11]: 0.1181
- Response of Cells Comprising Ex20ins EGFR Mutations to Poziotinib [12]: 0.09327
- Response of Cells Comprising T790M-like-S EGFR Mutations to Second-Generation TKIs [13]: 3.423
- Response of Cells Comprising T790M-like-R EGFR Mutations to Second-Generation TKIs [14]: 935.3
- Response of Cells Comprising T790M-like-S EGFR Mutations to Second-Generation TKIs [15]: 0.4851
- Response of Cells Comprising Classical-Like EGFR Mutations to Second-Generation TKIs [16]: 0.07456
